Results reported in PubChem BioAssay (NCI).
Where “and” joins values, the source holds several entries; their conditions need not be identical. Identical values can stand only once.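 Exposure lasted 48 hours, with cells grown in 96-well plates and compounds tested at five concentrations. Here, GI50 denotes the concentration required for 50% inhibition of growth. TGI is the concentration that stops growth completely.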

Legend:
Test in all cases: NCI tumour cell line growth inhibition, 48 h
CCRF-CEM leukemia = system: CCRF-CEM leukemia
NCI-H522 lung = system: NCI-H522 lung
A498 renal = system: A498 renal
SN12C renal = system: SN12C renal
SW-620 colon = system: SW-620 colon
NCI-H460 lung = system: NCI-H460 lung
HL-60(TB) leukemia = system: HL-60(TB) leukemia
SK-MEL-2 melanoma = system: SK-MEL-2 melanoma
SF-268 CNS = system: SF-268 CNS
CAKI-1 renal = system: CAKI-1 renal

Compound	TGI (CCRF-CEM leukemia)	TGI (NCI-H522 lung)	TGI (A498 renal)	TGI (SN12C renal)	TGI (SW-620 colon)	TGI (NCI-H460 lung)	TGI (HL-60(TB) leukemia)	TGI (SK-MEL-2 melanoma)	TGI (SF-268 CNS)	GI50 (CCRF-CEM leukemia) [µM]	GI50 (NCI-H522 lung)	GI50 (A498 renal)	GI50 (SN12C renal)	GI50 (SW-620 colon) [µM]	GI50 (NCI-H460 lung) [µM]	GI50 (HL-60(TB) leukemia)	GI50 (SF-268 CNS) [µM]	GI50 (CAKI-1 renal) [µM]	TGI (CAKI-1 renal)	GI50 (SK-MEL-2 melanoma) [µM]
COc1ccc2c(CCNS(=O)(=O)c3ccccc3)c(C(C)=O)[nH]c2c1[N+](=O)[O-]	> 100 µM	> 100 µM	> 100 µM	> 100 µM	> 100 µM	> 100 µM	> 100 µM	> 100 µM	> 100 µM											
O=C1c2ccccc2C(=O)c2c1c(NCCNCCO)c1cc[nH]c1c2NCCNCCO		> 35.8 µM	32.9 µM	2.67 µM	25.9 µM	> 60.1 µM	> 21 µM		5.28 µM	1.04	2.32 µM	8.09 µM	0.354 µM	3.28	7.78	2.9 µM	0.935	> 47.1	> 100 µM	
CCCN(CCC)c1ccc(C=O)c(OC)c1	> 100 µM	67.3 µM	7.79 µM	> 100 µM	> 100 µM	> 100 µM	38 µM		> 100 µM	24.4	18.1 µM	1.37 µM	32.7 µM	22.9	24	12.4 µM	22	22.7	80.4 µM	
S=C1SC2(CCCCCC2)NC2=C1CCCCC2	> 100 µM			> 100 µM	> 100 µM	77.9 µM	38.5 µM	47.4 µM	> 100 µM										> 100 µM	
O=c1c2ccccc2c(C=NCCNCCO)c2oc3ccccc3n12	16.1 µM	37.7 µM		18.3 µM	17 µM	11 µM	20.7 µM	50.6 µM	15.8 µM	1.47	16.7 µM		4.34 µM	4.63	2.9	4.63 µM	3.63	4.08	15.5 µM	21.3
CN1NC(c2ccccc2)=C(C#N)C(=O)CC1c1ccccc1Cl (configuration not stated)	> 100 µM	> 100 µM		> 100 µM	> 100 µM	> 100 µM	> 100 µM	> 100 µM	> 100 µM										> 100 µM	
CP(=O)(CCSc1ccccc1)c1ccccc1 (configuration not stated)	> 100 µM		> 100 µM	> 100 µM	> 100 µM	> 100 µM	> 100 µM		> 100 µM										> 100 µM	
COc1cc2c(C#N)n3c(c2cc1OC)C(=O)C(c1ccccc1)Oc1ccccc1-3 (configuration not stated)	8.51 µM		9.15 µM						> 100 µM	2.72		1.85 µM					3.32			
CCOc1ccc2c(-c3ccnc(Nc4cccc(C(F)(F)F)c4)n3)cnn2n1	> 25 µM	> 23.1 µM	> 25 µM	> 25 µM	> 25 µM	> 25 µM	> 25 µM		> 19.6 µM	> 25	6.33 µM	8.2 µM	15.1 µM	> 25	9.05	> 25 µM	7.87	> 14.7	> 25 µM	
CO/N=C(\COc1ccc2c(=O)cc(-c3ccccc3)oc2c1)c1ccc(OC)cc1	> 100 µM	> 100 µM	> 100 µM	> 100 µM	> 100 µM		> 100 µM	> 100 µM		> 100	> 100 µM	90.9 µM	88.2 µM	> 100		> 100 µM		24.9	70.3 µM	> 100
COc1cc2c3c(n(CCCn4cccn4)c(=O)c2cc1OC)-c1cc2c(cc1C3=O)OCO2	2.34 µM	63.7 µM	14.2 µM	3.08 µM	> 100 µM	13.3 µM		> 100 µM	> 100 µM	0.341	2.07 µM	2.48 µM	0.463 µM	1.39	0.52		0.586	0.577		59.9
O=S(O)CCCCSSCCCCS(=O)(O)=S	> 100 µM	65.6 µM	> 100 µM	> 100 µM	> 100 µM	> 100 µM		> 100 µM	> 100 µM										> 100 µM	
Nc1nc(N)c2ncn(Cc3c(Cl)cccc3Cl)c2n1	> 100 µM	> 100 µM	> 100 µM	> 100 µM	> 100 µM			> 100 µM	> 100 µM										> 100 µM	
O=c1cc(-c2ccccc2)oc2cc(OCc3cn(Cc4ccc(F)cc4)nn3)cc(O)c12	> 100 µM	> 100 µM	> 100 µM	> 100 µM	> 100 µM		> 100 µM	36.1 µM	> 100 µM	> 100	6.6 µM	42 µM	> 100 µM	> 100		> 100 µM	4.32	5.76	> 100 µM	6.8
COC(=O)c1c(C(=O)OC)c(C(=O)OC)c(C(=O)OC)c1C(=O)OC	> 100 µM	> 100 µM		> 100 µM	> 100 µM	> 100 µM	> 100 µM	> 100 µM	> 100 µM										> 100 µM	
COc1ccc(CNCCCN2C(=O)c3ccc4c5c(ccc(c35)C2=O)C(=O)N(CCCNCCCCNCCCN)C4=O)c(OC)c1OC	17.8 µM		23.1 µM		2.52 µM	7.03 µM	13.1 µM	4.11 µM	13.2 µM	1.94		5.5 µM		0.448	0.703	2.73 µM	0.955	4.49	44.9 µM	1.72
N#CC(C(=N/NC(N)=S)/C(=N\NC(N)=S)C(C#N)c1ccccc1)c1ccccc1 (configuration not stated)	> 10 µM	> 10 µM	> 10 µM	> 10 µM	> 10 µM	> 10 µM	> 10 µM	> 10 µM	> 10 µM											
CCN(CC)CCNc1ccc(CO)c2sc3ccccc3c(=O)c12				20 µM [middle of 4 runs]	17.4 µM [middle of 4 runs]	11 µM and 15.1 µM and 12.2 µM	24.5 µM [middle of 4 runs]		16.3 µM and 21.2 µM and 20.9 µM		1.48 µM and 8.14 µM	1.26 µM and 6.98 µM and 3.61 µM	6.55 µM [middle of 4 runs]	4.69	3.44	8.47 µM [middle of 4 runs]	3.62	3.03	26.4 µM [middle of 4 runs]	

Compound	TGI (CCRF-CEM leukemia)	TGI (NCI-H522 lung)	TGI (A498 renal)	TGI (SN12C renal)	TGI (SW-620 colon)	TGI (NCI-H460 lung)	TGI (HL-60(TB) leukemia)	TGI (SK-MEL-2 melanoma)	TGI (SF-268 CNS)	GI50 (CCRF-CEM leukemia) [µM]	GI50 (NCI-H522 lung)	GI50 (A498 renal)	GI50 (SN12C renal)	GI50 (SW-620 colon) [µM]	GI50 (NCI-H460 lung) [µM]	GI50 (HL-60(TB) leukemia)	GI50 (SF-268 CNS) [µM]	GI50 (CAKI-1 renal) [µM]	TGI (CAKI-1 renal)	GI50 (SK-MEL-2 melanoma) [µM]
COc1cc(/C=C\c2cc(/C=C\c3ccc(O)c(OC)c3)n(C(=O)Nc3ccc(C(F)(F)F)cc3)n2)ccc1O		4.65 µM	20.6 µM	9.9 µM	5.9 µM	9.95 µM	6.45 µM	17.3 µM	15.4 µM		1.78 µM	5.81 µM	2.73 µM	2.56	3.22	1.98 µM	2.8	3.02	12.7 µM	3.15
CC(=O)OC1C(O)COC(Oc2c(C)c3c4c(c2O)[C@@H](C)CC[C@@H]4[C@@H](C)C[C@H]3C=C(C)C)C1O (some centres not stated)	27.4 µM	> 100 µM	32.7 µM	44.5 µM		47.1 µM		> 100 µM	32.7 µM	7.42	30.9 µM	16.6 µM	19.3 µM		16.3		12.9	16.9	32.2 µM	42.7
CC(C)[C@H](COC(C)(C)C)N=CN1CSc2ccccc21	> 100 µM	> 100 µM	> 100 µM	84.1 µM	> 100 µM	> 100 µM	57.1 µM	> 100 µM	> 100 µM											
COc1cc2c(cc1OCCN1C(=O)c3cccc4cccc(c34)C1=O)N=C[C@@H]1CCCN1C2=O	23.1 µM and 19.5 µM	4.51 µM and 10.2 µM	16.6 µM and 42.8 µM	14.7 µM	15.8 µM and > 100 µM	13.9 µM and 29.9 µM		14.5 µM and 32.7 µM	15.3 µM	1.44	1.58 µM	19.6 µM		17.2	15.5			18.8	19.8 µM and 36.2 µM	16.6
CN1C(=O)NC2(O)c3ccccc3C(=O)C12O (configuration not stated)	> 100 µM	> 100 µM			> 100 µM	> 100 µM	> 100 µM	> 100 µM	> 100 µM										> 100 µM	
COc1cc([N+](=O)[O-])c(S(=O)(=O)O)cc1-n1nc(-c2ccccc2)n[n+]1-c1cc(S(=O)(=O)[O-])c([N+](=O)[O-])cc1OC	> 100 µM	> 100 µM		> 100 µM	> 100 µM	> 100 µM	> 100 µM	> 100 µM	> 100 µM										> 100 µM	
CC(=O)c1ccc(NCn2nc(-c3ccccc3O)oc2=S)cc1		> 100 µM		64.9 µM	> 100 µM	> 100 µM	> 100 µM	> 100 µM	> 100 µM		> 100 µM		27 µM	29.8	39.5	> 100 µM	> 100	> 100	> 100 µM	> 100
S=C(S)NCCCn1ccnc1		> 100 µM	> 100 µM	> 100 µM	> 100 µM	> 100 µM	> 100 µM	> 100 µM	> 100 µM										> 100 µM	
COc1ncnc2c1ncn2C/C(Br)=C(\Br)CCl	13.5 µM	2.25 µM		9.52 µM			6.32 µM		5.59 µM	2.73	0.875 µM		2.44 µM			2.03 µM	1.96	1.87	3.87 µM	
CC(=O)N1C(=O)C(=O)c2cc(Cl)ccc21			> 100 µM	> 100 µM	> 100 µM	> 100 µM	> 100 µM		> 100 µM											
COC(=O)/C1=C/C2CC(/C=C(/c3ccccc3)C(=O)O1)C2	70.5 µM	37.9 µM		64.3 µM	> 100 µM	> 100 µM	60.6 µM													
CCC(=O)[O-].CCC(=O)[O-].N.N.N.N.[Co+3].[O-][Cl+3]([O-])([O-])[O-]	> 100 µM	> 100 µM	> 100 µM	> 100 µM	> 100 µM	> 100 µM	> 100 µM	> 100 µM	> 100 µM	> 100	> 100 µM	> 100 µM	> 100 µM	> 100	> 100	> 100 µM	> 100			> 100
C[C@]1(O)CC(=O)[C@]2(O)C3=C(C=C[C@]2(O)C1)C(=O)c1c(O)cccc1C3=O	3.33 µM		25.9 µM	3.18 µM	3.35 µM	23.8 µM	4.5 µM	5.56 µM	20.5 µM	0.342		13 µM	1.72 µM	1.2	5.15	2.05 µM	5.16	1.5	2.85 µM	2.47
CC(=O)C1C(=O)C(=O)N(c2ccc(Cl)cc2C)C1=O (configuration not stated)	> 100 µM	> 100 µM	> 100 µM	> 100 µM	> 100 µM	> 100 µM	> 100 µM	> 100 µM	> 100 µM											
O=C(Oc1ccccc1Cl)c1cccnc1Nc1ccnc(C(F)(F)F)c1	6.52 µM	23.3 µM	37.2 µM	18 µM	22.3 µM	> 100 µM		21.8 µM	33.6 µM	2.4	6.6 µM	17.3 µM	4.03 µM	3.72	38.4		10.1	23.1	50 µM	6.79
CCCCCCCCOC(=O)c1cc(O)c(O)c(O)c1	> 42.8 µM		24.7 µM	31.7 µM	19.4 µM	10.9 µM	5.02 µM	18.2 µM	12.1 µM	0.314		8.26 µM	3.21 µM	2.87	2.73	0.486 µM	1.49	0.644	3.52 µM	4.72
CCCCCCCCCCSS(=O)(=O)c1ccc(C)cc1		17.2 µM	35 µM	25.1 µM	33.4 µM	23.9 µM	11.6 µM	12.4 µM	19 µM										31.2 µM	
